Measured values from ChEMBL document CHEMBL4842368, “Berotralstat (BCX7353): Structure-Guided Design of a Potent, Selective, and Oral Plasma Kallikrein Inhibitor to Prevent Attacks of Hereditary Angioedema (HAE)” (J Med Chem, 2021).

Columns and labels:
[1] = molecular target: T1, Plasma kallikrein (Homo sapiens, UniProt P03952); experiment: Inhibition of purified human plasma kallikrein using H-D-Pro-Phe-Arg-pNA.2HCl as substrate measured after 3 mins by microplate reader analysis
[2] = AUC in rat at 5 mg/kg, po after 12 hrs; assay type: ADME, organism-based; parameters: route oral, time 12 hrs, dose 5 mg/kg; details: in vivo
[3] = molecular target: T1, Plasma kallikrein; experiment: Inhibition of endogenous human plasma kallikrein using Z-Phe-Arg-AMC.HCl as substrate measured after 5 mins by microplate reader analysis
[4] = Cmax in rat at 5 mg/kg, po; assay type: ADME, organism-based; parameters: route oral, dose 5 mg/kg; details: in vivo

T1 sequence (P03952 20-390 limits assumed): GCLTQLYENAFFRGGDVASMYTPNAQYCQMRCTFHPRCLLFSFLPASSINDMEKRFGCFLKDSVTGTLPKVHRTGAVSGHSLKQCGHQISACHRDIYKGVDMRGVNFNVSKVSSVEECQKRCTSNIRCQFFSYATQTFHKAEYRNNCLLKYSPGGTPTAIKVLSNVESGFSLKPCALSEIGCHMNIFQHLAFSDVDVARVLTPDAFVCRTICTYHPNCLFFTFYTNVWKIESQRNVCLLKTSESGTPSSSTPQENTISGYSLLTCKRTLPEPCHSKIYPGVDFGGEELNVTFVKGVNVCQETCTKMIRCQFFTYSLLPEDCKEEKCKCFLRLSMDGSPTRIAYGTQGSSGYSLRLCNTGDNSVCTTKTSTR
T1 sequence (P03952 391-638 limits assumed): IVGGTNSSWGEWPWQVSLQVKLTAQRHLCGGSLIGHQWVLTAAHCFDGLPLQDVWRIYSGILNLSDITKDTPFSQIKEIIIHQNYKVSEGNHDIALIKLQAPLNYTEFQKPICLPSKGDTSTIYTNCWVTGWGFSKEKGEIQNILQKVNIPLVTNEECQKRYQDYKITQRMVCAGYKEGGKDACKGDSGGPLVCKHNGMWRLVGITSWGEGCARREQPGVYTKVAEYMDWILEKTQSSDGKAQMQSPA

## NCc1cccc(-n2nc(C(F)(F)F)cc2C(=O)Nc2ccc(C(OCC3CC3)c3ccccc3)cc2F)c1 (centres undefined)
[1]
  IC50: 0.651 µM

## NCc1cccc(-n2nc(C(F)(F)F)cc2C(=O)Nc2cc(C(NCC3CC3)c3cccnc3)ccc2F)c1 (centres undefined)
[1]
  IC50: 0.01 µM
[2]
  AUC at 12 h: 128 ng·h/mL
[3]
  IC50: 0.01 µM
[4]
  Cmax: 58 ng/mL

## CS(=O)(=O)c1cccc(-c2ccc(NC(=O)c3cc(C(F)(F)F)nn3-c3cccc(CN)c3)c(F)c2)c1
[1]
  IC50: 1.23 µM

## NCc1cccc(-n2nc(C(F)(F)F)cc2C(=O)Nc2ccc(-c3ccc(C(N)=O)cc3)cc2F)c1
[1]
  IC50: 0.395 µM

## NCc1cccc(-n2nc(C(F)(F)F)cc2C(=O)Nc2cc(F)cc(C(OCC3CC3)c3ccccc3)c2)c1 (centres undefined)
[1]
  IC50: 0.1 µM
[3]
  IC50: > 1 µM

## N#Cc1ccc(C(NCC2CC2)c2ccc(F)c(NC(=O)c3cc(C(F)(F)F)nn3-c3cccc(CN)c3)c2)cc1 (centres undefined)
[1]
  IC50: 0.0072 µM
[3]
  IC50: 0.019 µM

## NCc1cccc(-n2ccc(C(F)(F)F)n2)c1
[1]
  IC50: 1000 µM

## CCOC(c1ccccc1)c1ccc(F)c(NC(=O)c2cc(C(F)(F)F)nn2-c2cccc(CN)c2)c1 (centres undefined)
[1]
  IC50: 0.134 µM
[3]
  IC50: 1.28 µM
